Molecular target: T1, Human adrenergic α1B receptor (Homo sapiens, UniProt P35368)
T1 sequence (P35368 1-520): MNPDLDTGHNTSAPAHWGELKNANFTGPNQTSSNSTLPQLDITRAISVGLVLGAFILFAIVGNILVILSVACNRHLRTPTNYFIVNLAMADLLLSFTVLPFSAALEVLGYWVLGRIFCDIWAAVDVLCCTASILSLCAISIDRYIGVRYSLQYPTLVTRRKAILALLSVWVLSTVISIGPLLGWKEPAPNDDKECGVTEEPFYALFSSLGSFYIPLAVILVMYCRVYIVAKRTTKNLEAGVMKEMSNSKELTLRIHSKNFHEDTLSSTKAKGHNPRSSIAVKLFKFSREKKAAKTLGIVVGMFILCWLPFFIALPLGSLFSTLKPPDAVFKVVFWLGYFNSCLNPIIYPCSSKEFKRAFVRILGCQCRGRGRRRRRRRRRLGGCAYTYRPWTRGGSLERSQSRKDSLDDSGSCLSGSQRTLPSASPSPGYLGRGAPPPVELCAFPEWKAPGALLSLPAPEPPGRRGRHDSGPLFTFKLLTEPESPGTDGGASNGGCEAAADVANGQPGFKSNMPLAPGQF
Test: Radioligand binding, adrenergic α1B (Protocol Group B)
Design: purchased Milipore (Millipore)
Conditions: 0.1 μM compound; Protocol Group B; 0.1 µM
In short: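 Values are percent inhibition of specific [3H]prazosin (0.3 nM) binding or estimated Ki, from filtration counting. Human α1B recombinant membranes, Tris-HCl pH 7.4 buffer with MgCl2 and EDTA, 60 min at 25 °C, 1% DMSO vehicle; 10 μM prazosin defined nonspecific binding.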

In order of rising “Percentage inhibition of ligand binding, Adrenergic α1B (0.1 μM)” value:
1. Cc1ccc2c(c1F)c1c(n2CC(C)(O)c2cccnc2)CCN2CCCC12 (single isomer, unassigned) [87a]  13%
2. CC(O)(Cn1c2c(c3cc(F)cc(Cl)c31)C1CCCN1CC2)c1ccncc1 (single isomer, unassigned) [88a]  15%
3. Cc1cc(F)cc2c3c(n(CC(C)(O)c4cccnc4)c12)CCN1CCCC31 (single isomer, unassigned) [75d]  15%

Same assay, conditions: 0.3 μM compound; Protocol Group B; 0.3 µM

In order of rising “Percentage inhibition of ligand binding, Adrenergic α1B (0.3 μM)” value:
1. Cc1ccc2c(c1F)c1c(n2CC(C)(O)c2cccnc2)CCN2CCCC12 (single isomer, unassigned) [87a]  27%
2. Cc1cc(F)cc2c3c(n(CC(C)(O)c4cccnc4)c12)CCN1CCCC31 (single isomer, unassigned) [75d]  33%

Same assay, conditions: 0.3 μM compound; Protocol Group B; read-out: Percentage inhibition of ligand binding, Adrenergic α1B (0.3 μM)

Work on `CC(O)(Cn1c2c(c3cc(F)cc(Cl)c31)C1CCCN1CC2)c1ccncc1` (single isomer, unassigned) [88a] yielded an inhibition at 0.3 µM of 43%.

Molecular target: T2, Human adrenergic α2B receptor (Homo sapiens, UniProt P18089)
T2 sequence (P18089 1-450): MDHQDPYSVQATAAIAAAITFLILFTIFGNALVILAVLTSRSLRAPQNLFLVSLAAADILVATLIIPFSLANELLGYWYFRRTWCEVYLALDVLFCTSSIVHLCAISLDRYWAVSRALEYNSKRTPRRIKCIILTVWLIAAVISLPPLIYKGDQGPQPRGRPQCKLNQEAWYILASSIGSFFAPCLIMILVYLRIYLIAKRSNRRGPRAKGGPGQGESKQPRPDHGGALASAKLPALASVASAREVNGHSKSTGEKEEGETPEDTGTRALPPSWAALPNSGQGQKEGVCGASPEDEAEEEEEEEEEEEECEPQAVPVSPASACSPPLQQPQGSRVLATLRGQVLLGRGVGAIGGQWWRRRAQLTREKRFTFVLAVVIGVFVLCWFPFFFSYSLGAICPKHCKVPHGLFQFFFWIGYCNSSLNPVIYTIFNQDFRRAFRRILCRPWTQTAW
Test: Radioligand binding, adrenergic α2B (Protocol Group B)
Design: purchased Milipore (Millipore)
Conditions: 10 nM compound; Protocol Group B; 0.01 µM
In short: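 Compounds at various concentrations in 1% DMSO were tested on recombinant membranes in Tris-HCl pH 7.4 buffer containing MgCl2, CaCl2 and 0.2% BSA.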

In order of falling “Percentage inhibition of ligand binding, Adrenergic α2B (10 nM)” value:
1. Cc1cc(F)cc2c3c(n(CC(C)(O)c4cccnc4)c12)CCN1CCCC31 (single isomer, unassigned) [75d]  55%
2. Cc1ccc2c(c1F)c1c(n2CC(C)(O)c2cccnc2)CCN2CCCC12 (single isomer, unassigned) [87a]  30%

Same assay, conditions: 10 nM compound; Protocol Group B; read-out: Percentage inhibition of ligand binding, Adrenergic α2B (10 nM)

`CC(O)(Cn1c2c(c3cc(F)cc(Cl)c31)C1CCCN1CC2)c1ccncc1` (single isomer, unassigned) [88a] showed an inhibition at 0.01 µM of 86%.

Same assay, conditions: 30 nM compound; Protocol Group B; 0.03 µM

In order of falling “Percentage inhibition of ligand binding, Adrenergic α2B (30 nM)” value:
1. Cc1cc(F)cc2c3c(n(CC(C)(O)c4cccnc4)c12)CCN1CCCC31 (single isomer, unassigned) [75d]  79%
2. Cc1ccc2c(c1F)c1c(n2CC(C)(O)c2cccnc2)CCN2CCCC12 (single isomer, unassigned) [87a]  63%

Same assay, conditions: 30 nM compound; Protocol Group B; read-out: Percentage inhibition of ligand binding, Adrenergic α2B (30 nM)

Work on `CC(O)(Cn1c2c(c3cc(F)cc(Cl)c31)C1CCCN1CC2)c1ccncc1` (single isomer, unassigned) [88a] yielded an inhibition at 0.03 µM of 93%.

Same assay, conditions: Protocol Group B; estimated Ki; read-out: Ki α2B

In order of rising Ki:
1. CC(O)(Cn1c2c(c3cc(F)cc(Cl)c31)C1CCCN1CC2)c1ccncc1 (single isomer, unassigned) [88a]  0.00145 µM
2. Cc1cc(F)cc2c3c(n(CC(C)(O)c4cccnc4)c12)CCN1CCCC31 (single isomer, unassigned) [75d]  0.00865 µM
3. Cc1ccc2c(c1F)c1c(n2CC(C)(O)c2cccnc2)CCN2CCCC12 (single isomer, unassigned) [87a]  0.0206 µM

Molecular target: T3, Human adrenergic α2A receptor (Homo sapiens, UniProt P08913)
T3 sequence (P08913 1-465): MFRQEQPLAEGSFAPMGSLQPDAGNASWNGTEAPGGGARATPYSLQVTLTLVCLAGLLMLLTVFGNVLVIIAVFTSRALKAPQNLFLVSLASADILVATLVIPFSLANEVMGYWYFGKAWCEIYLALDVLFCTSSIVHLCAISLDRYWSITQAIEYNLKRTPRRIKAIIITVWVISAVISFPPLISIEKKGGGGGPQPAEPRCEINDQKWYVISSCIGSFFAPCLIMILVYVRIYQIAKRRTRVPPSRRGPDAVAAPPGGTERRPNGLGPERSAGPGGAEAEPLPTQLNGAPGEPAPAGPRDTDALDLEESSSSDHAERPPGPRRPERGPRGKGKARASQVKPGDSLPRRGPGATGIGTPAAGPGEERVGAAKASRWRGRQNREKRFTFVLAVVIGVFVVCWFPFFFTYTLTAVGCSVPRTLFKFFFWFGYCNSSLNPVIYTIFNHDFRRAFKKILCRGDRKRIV
Test: Radioligand binding, adrenergic α2A (Protocol Group B)
Design: purchased Milipore (Millipore)
Conditions: 0.1 μM compound; Protocol Group B; 0.1 µM
In short: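 Compounds (1% DMSO vehicle, various concentrations) competed against 2 nM [^3H]MK-912 on recombinant receptor membranes for 60 min at 25° C, Tris-HCl pH 7.4 buffer with Mg2+, Ca2+, BSA. Bound radioligand filtered and counted; 10 μM rauwolscine set nonspecific binding. Values: percent inhibition of specific binding or estimated Ki.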

In order of rising “Percentage inhibition of ligand binding, Adrenergic α2A (0.1 μM)” value:
1. Cc1ccc2c(c1F)c1c(n2CC(C)(O)c2cccnc2)CCN2CCCC12 (single isomer, unassigned) [87a]  19%
2. Cc1cc(F)cc2c3c(n(CC(C)(O)c4cccnc4)c12)CCN1CCCC31 (single isomer, unassigned) [75d]  25%
3. CC(O)(Cn1c2c(c3cc(F)cc(Cl)c31)C1CCCN1CC2)c1ccncc1 (single isomer, unassigned) [88a]  52%

Same assay, conditions: 0.3 μM compound; Protocol Group B; 0.3 µM

In order of falling “Percentage inhibition of ligand binding, Adrenergic α2A (0.3 μM)” value:
1. CC(O)(Cn1c2c(c3cc(F)cc(Cl)c31)C1CCCN1CC2)c1ccncc1 (single isomer, unassigned) [88a]  72%
2. Cc1cc(F)cc2c3c(n(CC(C)(O)c4cccnc4)c12)CCN1CCCC31 (single isomer, unassigned) [75d]  41%
3. Cc1ccc2c(c1F)c1c(n2CC(C)(O)c2cccnc2)CCN2CCCC12 (single isomer, unassigned) [87a]  33%

Same assay, conditions: Protocol Group B; estimated Ki

With `CC(O)(Cn1c2c(c3cc(F)cc(Cl)c31)C1CCCN1CC2)c1ccncc1` (single isomer, unassigned) [88a] the Ki was 0.0439 µM.

Molecular target: T2, Human adrenergic α2B receptor
Test: β-Arrestin GPCR functional assay, adrenergic α2B (Protocol B)
Format: cell-based
Conditions: β-arrestin, antagonist vs nor-epinephrine EC80; read-out: IC50 Adrenergic α2B
Experimental: To evaluate the activity of compounds in β-Arrestin GPCR functional assays, recombinant CHO cell line (DiscoveRX), over expressed with human adrenergic α2B receptor were used. The experiment was done with kit of DiscoveRX as per recommended protocol of the supplier. Cells were harvested from culture flask using cell dissociation solution (CDS) and plated at a density of 12,000 cells/well in CP reagent (supplied with the kit) in a half area 96-well white polystyrene plate. After 24 h incubation at 37° C., compounds at various concentrations in 1% (final) DMSO were charged to the cells for 30 min at 37° C. Active nor-epinephrine (-NE) at its EC80 concentrations (50 nM) were then added to the cells and incubated for another 90 min at 37° C. Detection mix was prepared by mixing of Path Hunter cell assay buffer, Emerald II solution and Galactone star solution in a ratio of 19:5:1 and incubated with the cells for 60 min at RT in the dark. The reading was taken in Envision at luminescence mode. Biochemical assay results are presented as the percent Inhibition in Table B2a, or IC50 values in Table B2b.

In order of falling IC50:
1. CC(O)(Cn1c2c(c3cc(F)cc(Cl)c31)C1CCCN1CC2)c1ccncc1 (single isomer, unassigned) [88a]  0.388 µM
2. Cc1cc(F)cc2c3c(n(CC(C)(O)c4cccnc4)c12)CCN1CCCC31 (single isomer, unassigned) [75d]  0.381 µM
3. Cc1ccc2c(c1F)c1c(n2CC(C)(O)c2cccnc2)CCN2CCCC12 (single isomer, unassigned) [87a]  0.303 µM

Reference: patent publication US20150315188A1, “COMPOUNDS AND METHODS FOR TREATMENT OF HYPERTENSION” (MEDIVATION TECHNOLOGIES, INC., priority 2012, published 2015)
